Data on 1 substance can be found in US11473089B2, “Aptamer for ADAMTS5 and use for aptamer for ADAMTS5” (RIBOMIC INC., priority 2017, dated 2022).

Data set [1] deals with T1, ADAMTS5 (Homo sapiens, UniProt Q9UNA0).
T1 construct: purchased R&D systems
T1 sequence (Q9UNA0 262-930): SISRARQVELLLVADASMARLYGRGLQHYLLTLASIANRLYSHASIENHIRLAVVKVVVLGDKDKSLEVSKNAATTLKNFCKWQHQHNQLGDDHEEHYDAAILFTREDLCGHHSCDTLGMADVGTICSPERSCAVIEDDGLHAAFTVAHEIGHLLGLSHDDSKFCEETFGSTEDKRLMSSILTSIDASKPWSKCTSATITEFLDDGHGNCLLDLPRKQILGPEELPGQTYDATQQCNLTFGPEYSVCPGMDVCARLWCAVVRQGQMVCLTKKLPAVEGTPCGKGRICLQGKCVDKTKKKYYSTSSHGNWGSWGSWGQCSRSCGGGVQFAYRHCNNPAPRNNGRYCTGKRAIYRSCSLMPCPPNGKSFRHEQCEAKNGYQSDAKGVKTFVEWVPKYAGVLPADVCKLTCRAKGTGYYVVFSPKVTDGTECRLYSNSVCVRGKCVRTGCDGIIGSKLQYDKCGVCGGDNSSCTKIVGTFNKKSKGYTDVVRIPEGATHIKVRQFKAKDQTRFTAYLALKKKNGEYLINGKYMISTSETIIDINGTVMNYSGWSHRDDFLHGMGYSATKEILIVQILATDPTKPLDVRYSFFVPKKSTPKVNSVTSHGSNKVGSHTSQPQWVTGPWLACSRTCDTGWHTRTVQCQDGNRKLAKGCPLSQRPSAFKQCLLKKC
Kind of data set: ADAMTS5 enzyme inhibition, aggrecan G1-IGD-G2 cleavage, sandwich ELISA detection (evaluation method 2). It is filed as biochemical. The settings on record: Table 6; 2 nM aptamer; 0.2 nM ADAMTS5, 400 nM substrate, 30 min. On the procedure:
On the other hand, the aptamers having the sequences shown by the sequences of SEQ ID NOs: 11(34)-11(35) and SEQ ID NO: 15 were evaluated by the following method (evaluation method 2). The cleavage reaction of the substrate (aggrecan G1-IGD-G2) by ADAMTS5 was performed in the same manner as in Example 1 except the following points. The differences are that the final concentrations of ADAMTS5 and the substrate were respectively 0.2 nM and 400 nM (48 μg/mL), and that the enzyme reaction time was 30 min. After the reaction, the reaction was stopped by adding an excess amount of an ADAMTS5 small molecule inhibitor. The cleaved substrate was quantified by a sandwich ELISA method using two kinds of anti-aggrecan antibodies. […] Using this, the amount of cleaved substrate can be quantified. […] The inhibition rate of the test substance was calculated using the following equation. inhibition rate (%)=(PE−Papt)/(PE−P0)×100 wherein PE is the amount of a cleaved substrate with the addition of ADAMTS5, Papt is the amount of a cleaved substrate with the addition of a test substance, and P0 is the residual amount of a cleaved substrate without the addition of ADAMTS5.
The measurement results of the inhibitory activity of the aptamers having the sequences shown in SEQ ID NOs: 11(34)-11(35) and SEQ ID NO: 15 are shown in Table 6, evaluation method 2. […] “n.d.” means not determined. […]
For orientation: An ELISA detects its analyte on a solid surface through an enzyme-linked reagent.

Data set [2] relates to HFLS-OA cells. Kind of data set: aggrecan cleavage inhibitory activity in synovial cells. The format is cell-based, human. The following applies: Table 11, culture supernatant after 3 days. On the procedure:
The aggrecan cleavage inhibitory activity of the aptamers shown in SEQ ID NOs: 11(34), 28(13), 28(15), 28(18) in synovial cells was measured. The measurement was performed by the following method. Synovial cells (HFLS-OA cells) (manufactured by Cell Applications) derived from human knee osteoarthritis patients were seeded at 2×10^4 cells per well, and cultured for 16-24 hr. The culture method followed the manual of Cell Applications. After culturing, the medium was removed, the cells were washed with Basal Medium (manufactured by Cell Applications), and 500 ng of aggrecan G1-IGD-G2 (manufactured by R&D systems) diluted with Basal Medium as a substrate was added. The aptamer was added simultaneously with the substrate to the samples to be evaluated for inhibition by the aptamer. The cells were kept cultured and the culture supernatant was collected after 3 days. The added substrate is cleaved during culture by substrate-cleaving enzymes such as ADAMTS5 secreted from the HFLS-OA cells. The amount of the cleaved substrate fragment contained in the culture supernatant was quantified by the ELISA method described in Example 5. The substrate cleavage efficiency in this evaluation system was 1-8%. The nucleic acid shown in SEQ ID NO: 15 was used as a negative control.

With “15 (AUUGGCACGGAGACAGCGCUCGCUUCUCGAUCACCAAU; listed as RNA, chemistry not given here) [compound 15]”, the “inhibitory activity (%) evaluation method 2” value in data set [1] turned out to be 16.5%. For the same substance, the “inhibition rate (%) 3 nM” value in data set [2] (3 nM aptamer) is recorded as 10%. For the same substance, in data set [2] (30 nM aptamer), the “inhibition rate (%) 30 nM” value is 8%. Besides, the “inhibition rate (%) 300 nM” value in data set [2] (300 nM aptamer) was 37%.
